ChEMBL document CHEMBL4392824, “Design, synthesis and bioevaluation of 3-oxo-6-aryl-2,3-dihydropyridazine-4-carbohydrazide derivatives as novel xanthine oxidase inhibitors” (Bioorg Med Chem, 2019)
pIC50: −log10 of the molar value.

Columns and labels:
[1] = molecular target: T1, Xanthine dehydrogenase/oxidase (Bos taurus, UniProt P80457); test: Inhibition of bovine xanthine oxidase assessed as reduction in uric acid formation preincubated for 5 mins followed by xanthine addition and measured after 20 mins by spectrophotometry; conditions: for pIC50: read-out: IC50
T1 sequence (P80457 whole entry): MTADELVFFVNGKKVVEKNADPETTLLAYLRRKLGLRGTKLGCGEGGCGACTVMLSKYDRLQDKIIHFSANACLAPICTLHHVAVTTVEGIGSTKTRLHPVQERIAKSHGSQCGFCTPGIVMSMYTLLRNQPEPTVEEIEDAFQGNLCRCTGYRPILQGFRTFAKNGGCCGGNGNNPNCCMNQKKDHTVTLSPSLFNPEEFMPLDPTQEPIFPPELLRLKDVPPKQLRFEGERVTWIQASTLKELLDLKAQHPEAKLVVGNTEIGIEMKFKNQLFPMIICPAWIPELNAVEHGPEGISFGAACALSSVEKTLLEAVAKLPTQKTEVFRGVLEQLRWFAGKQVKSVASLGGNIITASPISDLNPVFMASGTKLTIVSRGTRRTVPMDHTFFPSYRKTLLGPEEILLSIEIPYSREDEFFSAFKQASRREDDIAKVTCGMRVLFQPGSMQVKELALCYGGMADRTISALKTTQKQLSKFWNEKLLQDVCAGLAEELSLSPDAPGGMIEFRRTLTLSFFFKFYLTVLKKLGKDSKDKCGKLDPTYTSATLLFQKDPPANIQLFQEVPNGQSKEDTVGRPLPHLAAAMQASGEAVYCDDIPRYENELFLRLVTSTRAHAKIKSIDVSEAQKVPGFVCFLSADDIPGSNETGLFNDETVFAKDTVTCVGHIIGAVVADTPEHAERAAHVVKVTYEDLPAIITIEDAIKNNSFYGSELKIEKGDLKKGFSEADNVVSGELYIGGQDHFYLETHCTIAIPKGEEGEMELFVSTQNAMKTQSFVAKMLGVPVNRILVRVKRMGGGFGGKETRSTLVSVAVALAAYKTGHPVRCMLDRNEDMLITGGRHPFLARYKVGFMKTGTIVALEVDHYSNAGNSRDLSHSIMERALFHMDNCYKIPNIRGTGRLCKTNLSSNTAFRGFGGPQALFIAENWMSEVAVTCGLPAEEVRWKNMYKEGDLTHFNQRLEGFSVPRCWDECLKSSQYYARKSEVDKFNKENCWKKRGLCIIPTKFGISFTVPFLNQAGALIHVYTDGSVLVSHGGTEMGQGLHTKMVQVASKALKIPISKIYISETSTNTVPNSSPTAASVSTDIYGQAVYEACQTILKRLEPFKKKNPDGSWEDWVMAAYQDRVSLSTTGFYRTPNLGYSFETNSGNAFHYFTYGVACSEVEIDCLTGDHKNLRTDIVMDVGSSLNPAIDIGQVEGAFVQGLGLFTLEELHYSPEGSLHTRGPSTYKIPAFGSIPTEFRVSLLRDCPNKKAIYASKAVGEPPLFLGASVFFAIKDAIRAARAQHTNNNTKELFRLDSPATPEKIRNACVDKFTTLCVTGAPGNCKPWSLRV

[2] = molecular target: T1, Xanthine dehydrogenase/oxidase; test: Inhibition of bovine xanthine oxidase assessed as reduction in uric acid formation at 10 uM preincubated for 5 mins followed by xanthine addition and measured after 20 mins by spectrophotometry; conditions: cattle
[3] = molecular target: T1, Xanthine dehydrogenase/oxidase; test: Mixed type inhibition of bovine xanthine oxidase assessed as reduction in uric acid formation at 0.5 to 2 uM preincubated for 5 mins followed by xanthine addition and measured after 20 mins by spectrophotometry based Lineweaver-Burk plot analysis; conditions: cattle

SMILES | IC50 [1] | inhibition at 10 µM [2] | pIC50 [1] | inhibition (INH) [3]
CCOc1ccc(-c2cc(C(=O)NN)c(=O)[nH]n2)cc1C#N | – | – | 5.60 | –
CC(C)COc1ccc(-c2cc(C(=O)NN)c(=O)[nH]n2)cc1[N+](=O)[O-] | – | – | 5.44 | –
NNC(=O)c1cc(-c2ccc([N+](=O)[O-])cc2)n[nH]c1=O | Not Active | < 50% | – | –
CC(C)COc1ccc(-c2cc(C(=O)O)c(=O)[nH]n2)cc1C#N | Not Active | < 50% | – | –
CC(C)Oc1ccc(-c2cc(C(=O)NN)c(=O)[nH]n2)cc1 | Not Active | < 50% | – | –
CC(C)Oc1ccc(-c2cc(C(=O)NN)c(=O)[nH]n2)cc1C#N | – | – | 5.99 | Active
CCCCCOc1ccc(-c2cc(C(=O)NN)c(=O)[nH]n2)cc1C#N | – | – | 5.23 | –
CC(C)Oc1ccc(-c2cc(C(=O)O)c(=O)[nH]n2)cc1[N+](=O)[O-] | Not Active | < 50% | – | –
CCCCOc1ccc(-c2cc(C(=O)NN)c(=O)[nH]n2)cc1C#N | – | – | 5.28 | –
CC(C)COc1ccc(-c2cc(C(=O)NN)c(=O)[nH]n2)cc1C#N | – | – | 5.53 | –
CC(C)CCOc1ccc(-c2cc(C(=O)NN)c(=O)[nH]n2)cc1[N+](=O)[O-] | – | – | 5.22 | –

Now from value to compound:

IC50 [1] | inhibition at 10 µM [2] | pIC50 [1] | inhibition (INH) [3] | SMILES
Not Active | < 50% | – | – | NNC(=O)c1cc(-c2ccccc2)n[nH]c1=O
– | – | 5.35 | – | CC(C)CCOc1ccc(-c2cc(C(=O)NN)c(=O)[nH]n2)cc1C#N
Not Active | < 50% | – | – | NNC(=O)c1cc(-c2cccc([N+](=O)[O-])c2)n[nH]c1=O
Not Active | < 50% | – | – | CC(C)COc1ccc(-c2cc(C(=O)NN)c(=O)[nH]n2)cc1
– | – | 5.72 | – | CC(C)Oc1ccc(-c2cc(C(=O)NN)c(=O)[nH]n2)cc1[N+](=O)[O-]
Not Active | < 50% | – | – | CC(C)CCOc1ccc(-c2cc(C(=O)O)c(=O)[nH]n2)cc1C#N
– | – | 5.51 | – | CCCOc1ccc(-c2cc(C(=O)NN)c(=O)[nH]n2)cc1C#N
